Results: PubChem BioAssay (NCI)
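Method: 48-hour compound exposure of cells in 96-well plates, five concentrations, linear interpolation of endpoints. GI50 marks 50% less growth. Definition used: TGI = concentration required for complete inhibition of growth.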

Key:
Experiment in all cases: NCI tumour cell line growth inhibition, 48 h
KM12 colon = system: KM12 colon
HT29 colon = system: HT29 colon
ACHN renal = system: ACHN renal
DU-145 prostate = system: DU-145 prostate
NCI-H23 lung = system: NCI-H23 lung
NCI-H460 lung = system: NCI-H460 lung
SNB-75 CNS = system: SNB-75 CNS
786-0 renal = system: 786-0 renal
SF-268 CNS = system: SF-268 CNS
SK-MEL-2 melanoma = system: SK-MEL-2 melanoma
CCRF-CEM leukemia = system: CCRF-CEM leukemia
K-562 leukemia = system: K-562 leukemia
BT-549 breast = system: BT-549 breast
RPMI-8226 leukemia = system: RPMI-8226 leukemia
HOP-92 NSCLC = system: HOP-92 NSCLC
A549 NSCLC = system: A549 NSCLC
MCF7 breast = system: MCF7 breast
UACC-257 melanoma = system: UACC-257 melanoma
SK-MEL-28 melanoma = system: SK-MEL-28 melanoma
UACC-62 melanoma = system: UACC-62 melanoma
OVCAR-5 ovarian = system: OVCAR-5 ovarian
M14 melanoma = system: M14 melanoma
SW-620 colon = system: SW-620 colon
COLO 205 colon = system: COLO 205 colon
NCI-H522 lung = system: NCI-H522 lung
OVCAR-3 ovarian = system: OVCAR-3 ovarian
HOP-62 NSCLC = system: HOP-62 NSCLC
RXF 393 renal = system: RXF 393 renal
HCT-116 colon = system: HCT-116 colon
HS 578T breast = system: HS 578T breast
OVCAR-8 ovarian = system: OVCAR-8 ovarian
CAKI-1 renal = system: CAKI-1 renal
IGROV1 ovarian = system: IGROV1 ovarian
SF-539 CNS = system: SF-539 CNS
MDA-MB-435 = system: MDA-MB-435
SK-MEL-5 melanoma = system: SK-MEL-5 melanoma
A498 renal = system: A498 renal
HCC-2998 colon = system: HCC-2998 colon
OVCAR-4 ovarian = system: OVCAR-4 ovarian
SN12C renal = system: SN12C renal
T-47D breast = system: T-47D breast
MDA-MB-231 breast = system: MDA-MB-231 breast
SNB-19 CNS = system: SNB-19 CNS
NCI-H226 lung = system: NCI-H226 lung
EKVX NSCLC = system: EKVX NSCLC
U251 CNS = system: U251 CNS
SK-OV-3 ovarian = system: SK-OV-3 ovarian
PC-3 prostate = system: PC-3 prostate
LOX IMVI melanoma = system: LOX IMVI melanoma
SF-295 CNS = system: SF-295 CNS
UO-31 renal = system: UO-31 renal
HCT-15 colon = system: HCT-15 colon
MOLT-4 leukemia = system: MOLT-4 leukemia
NCI/ADR-RES ovarian = system: NCI/ADR-RES ovarian

In the case of c1ccc(N2CCN(CN3CCN(c4ccccc4)C3)C2)cc1, the GI50 (KM12 colon) is reported as > 100 µM, the TGI (KM12 colon) is reported as > 100 µM and the GI50 (HT29 colon) is reported as > 100 µM. The TGI (HT29 colon) was > 100 µM, the GI50 (ACHN renal) was 54 µM and the TGI (ACHN renal) was > 100 µM. For the same compound, the GI50 (DU-145 prostate) was > 100 µM, the TGI (DU-145 prostate) was > 100 µM and the GI50 (NCI-H23 lung) was > 100 µM. For the same compound, the TGI (NCI-H23 lung) was > 100 µM, the GI50 (NCI-H460 lung) was > 100 µM and the TGI (NCI-H460 lung) was > 100 µM. For the same compound, the GI50 (SNB-75 CNS) was > 100 µM, the TGI (SNB-75 CNS) was > 100 µM and the GI50 (786-0 renal) was > 100 µM. For the same compound, the TGI (786-0 renal) was > 100 µM, the GI50 (SF-268 CNS) was > 100 µM and the TGI (SF-268 CNS) was > 100 µM. The GI50 (SK-MEL-2 melanoma) was > 100 µM, the TGI (SK-MEL-2 melanoma) was > 100 µM and the GI50 (CCRF-CEM leukemia) was 42 µM. For the same compound, the TGI (CCRF-CEM leukemia) was > 100 µM, the GI50 (K-562 leukemia) was 3.9 µM and the TGI (K-562 leukemia) was > 100 µM. For the same compound, the GI50 (BT-549 breast) was > 100 µM, the TGI (BT-549 breast) was > 100 µM and the GI50 (RPMI-8226 leukemia) was 60.9 µM. For the same compound, the TGI (RPMI-8226 leukemia) was > 100 µM, the GI50 (HOP-92 NSCLC) was > 100 µM and the TGI (HOP-92 NSCLC) was > 100 µM. The GI50 (A549 NSCLC) was > 100 µM, the TGI (A549 NSCLC) was > 100 µM and the GI50 (MCF7 breast) was > 100 µM. For the same compound, the TGI (MCF7 breast) was > 100 µM, the GI50 (UACC-257 melanoma) was > 100 µM and the TGI (UACC-257 melanoma) was > 100 µM. The GI50 (SK-MEL-28 melanoma) was > 100 µM, the TGI (SK-MEL-28 melanoma) was > 100 µM and the GI50 (UACC-62 melanoma) was > 100 µM. For the same compound, the TGI (UACC-62 melanoma) was > 100 µM, the GI50 (OVCAR-5 ovarian) was > 100 µM and the TGI (OVCAR-5 ovarian) was > 100 µM. The GI50 (M14 melanoma) was > 100 µM, the TGI (M14 melanoma) was > 100 µM and the GI50 (SW-620 colon) was 60.7 µM. For the same compound, the TGI (SW-620 colon) was > 100 µM, the GI50 (COLO 205 colon) was > 100 µM and the TGI (COLO 205 colon) was > 100 µM. The GI50 (NCI-H522 lung) was > 100 µM, the TGI (NCI-H522 lung) was > 100 µM and the GI50 (OVCAR-3 ovarian) was > 100 µM. For the same compound, the TGI (OVCAR-3 ovarian) was > 100 µM, the GI50 (HOP-62 NSCLC) was > 100 µM and the TGI (HOP-62 NSCLC) was > 100 µM. The GI50 (RXF 393 renal) was > 100 µM, the TGI (RXF 393 renal) was > 100 µM and the GI50 (HCT-116 colon) was 41.9 µM. The TGI (HCT-116 colon) was > 100 µM, the GI50 (HS 578T breast) was > 100 µM and the TGI (HS 578T breast) was > 100 µM. For the same compound, the GI50 (OVCAR-8 ovarian) was > 100 µM, the TGI (OVCAR-8 ovarian) was > 100 µM and the GI50 (CAKI-1 renal) was > 100 µM. The TGI (CAKI-1 renal) was > 100 µM, the GI50 (IGROV1 ovarian) was 25.5 µM and the TGI (IGROV1 ovarian) was > 100 µM. The GI50 (SF-539 CNS) was > 100 µM, the TGI (SF-539 CNS) was > 100 µM and the GI50 (MDA-MB-435) was > 100 µM. The TGI (MDA-MB-435) was > 100 µM, the GI50 (SK-MEL-5 melanoma) was > 100 µM and the TGI (SK-MEL-5 melanoma) was > 100 µM. The GI50 (A498 renal) was 37.2 µM, the TGI (A498 renal) was > 100 µM and the GI50 (HCC-2998 colon) was > 100 µM. The TGI (HCC-2998 colon) was > 100 µM, the GI50 (OVCAR-4 ovarian) was > 100 µM and the TGI (OVCAR-4 ovarian) was > 100 µM. The GI50 (SN12C renal) was > 100 µM, the TGI (SN12C renal) was > 100 µM and the GI50 (T-47D breast) was > 100 µM. The TGI (T-47D breast) was > 100 µM, the GI50 (MDA-MB-231 breast) was > 100 µM and the TGI (MDA-MB-231 breast) was > 100 µM. The GI50 (SNB-19 CNS) was > 100 µM, the TGI (SNB-19 CNS) was > 100 µM and the GI50 (NCI-H226 lung) was > 100 µM. For the same compound, the TGI (NCI-H226 lung) was > 100 µM, the GI50 (EKVX NSCLC) was > 100 µM and the TGI (EKVX NSCLC) was > 100 µM. The GI50 (U251 CNS) was > 100 µM, the TGI (U251 CNS) was > 100 µM and the GI50 (SK-OV-3 ovarian) was > 100 µM. The TGI (SK-OV-3 ovarian) was > 100 µM, the GI50 (PC-3 prostate) was > 100 µM and the TGI (PC-3 prostate) was > 100 µM. For the same compound, the GI50 (LOX IMVI melanoma) was 66.6 µM, the TGI (LOX IMVI melanoma) was > 100 µM and the GI50 (SF-295 CNS) was > 100 µM. The TGI (SF-295 CNS) was > 100 µM, the GI50 (UO-31 renal) was > 100 µM and the TGI (UO-31 renal) was > 100 µM. The GI50 (HCT-15 colon) was > 100 µM, the TGI (HCT-15 colon) was > 100 µM and the GI50 (MOLT-4 leukemia) was 23.8 µM. For the same compound, the TGI (MOLT-4 leukemia) was > 100 µM, the GI50 (NCI/ADR-RES ovarian) was > 100 µM and the TGI (NCI/ADR-RES ovarian) was > 100 µM.
